Results as given in EP0174371B1, “TRIPHENYLMETHANE DERIVATIVES AND METHOD FOR DETERMINING OXIDATIVE SUBSTANCES USING THEM AS COLOR-FORMING COMPONENT” (WAKO PURE CHEMICAL INDUSTRIES, LTD., priority 1984, dated 1985).
Converted amounts (≈) assume the structure as drawn.

What was measured:
[1] = physchem; conditions: pH 7.2, aqueous buffer
[2] = Solubility in water around the neutral pH range; conditions: for solubility in water: pH 7.2 (around the neutral range); for solubility in water relative to BSPM: pH 7.2, multiple of the solubility of BSPM
[3] = system: H202-POD (peroxidase) system; test: Oxidation coloring in the H2O2-peroxidase system; conditions: statement in words
From the text: The triphenyl methane derivatives according to the present invention in which two groups ―O(CH2)nSO3M (M and n are the same meanings as given above), are present, are unexpectedly different from the triphenyl methane derivative in which two sulfonic acid groups are directly bonded to the benzene nucleus, since they are excellent in oxidation coloring in the H202-POD system, and can be satisfactorily used for the purpose aimed at by the present invention.

[4] = known triphenyl methane type leuco coloring matters, statement in words; cited from earlier work

solubility in water [2] [µM]	solubility in water relative to BSPM [2]	SMILES	solubility in water in the neutral pH-range [4]	other results
–	–	CCN(CC)c1ccc(C(c2ccc(N(CC)CC)cc2)c2ccccc2S(=O)(=O)O)cc1 [BSPM, bis(4-diethylaminophenyl)-2-sulfophenyl methane]	–	solubility [1]: 500 µM (≈ 233 µg/mL)
≥ 15000	not less than 30 times	CCN(CC)c1ccc(C(c2ccc(N(CC)CC)cc2)c2ccc(OCCCS(=O)(=O)O)c(OCCCS(=O)(=O)O)c2)cc1 [BSdiproPM, bis(4-N,N-diethylaminophenyl)-3,4-disodium sulfopropoxyphenyl methane]	–	–
5000	10 times	CCN(CC)c1ccc(C(c2ccc(OCCCS(=O)(=O)O)cc2)c2ccc(N(CC)CC)cc2)cc1 [BSproPM, bis(4-N,N-diethylaminophenyl)-4-sodium sulfopropoxyphenyl methane]	–	–
–	–	CCN(CC)c1ccc(C(c2ccc(N(CC)CC)cc2)c2ccc(S(=O)(=O)O)cc2S(=O)(=O)O)cc1 [bis(4-diethylaminopheny)-2,4-disulfophenyl methane]	–	oxidation coloring in the H202-POD system [3]: no coloring takes place
–	–	CN(C)c1ccc(C(c2ccccc2)c2ccc(N(C)C)cc2)cc1 [leuco malachite green]	difficult to dissolve into water in the neutral pH-range	–
–	–	CN(C)c1ccc(C(c2ccc(N(C)C)cc2)c2ccc(N(C)C)cc2)cc1 [leucocrystal violet]	difficult to dissolve into water in the neutral pH-range	–
